Target: T1, Zinc finger protein mex-5 (Caenorhabditis elegans, UniProt Q9XUB2)
T1 sequence (Q9XUB2 whole entry): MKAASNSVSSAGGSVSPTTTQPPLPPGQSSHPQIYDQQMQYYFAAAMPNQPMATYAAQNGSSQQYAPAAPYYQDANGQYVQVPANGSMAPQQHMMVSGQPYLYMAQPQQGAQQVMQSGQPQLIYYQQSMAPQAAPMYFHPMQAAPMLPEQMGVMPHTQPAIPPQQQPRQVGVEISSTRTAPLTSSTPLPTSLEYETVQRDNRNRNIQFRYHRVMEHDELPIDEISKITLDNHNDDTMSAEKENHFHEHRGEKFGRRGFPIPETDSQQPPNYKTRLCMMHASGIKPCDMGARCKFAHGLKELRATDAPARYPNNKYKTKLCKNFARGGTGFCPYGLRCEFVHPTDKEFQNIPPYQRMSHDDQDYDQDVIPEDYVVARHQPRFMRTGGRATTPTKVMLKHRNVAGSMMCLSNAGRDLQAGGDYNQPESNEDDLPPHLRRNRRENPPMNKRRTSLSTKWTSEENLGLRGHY
Test: MEX-5/TCR-2 RNA interaction inhibitors, dose response, biochemical, C. elegans, fluorescence polarization (AID 1960)

Row | SMILES | EC50 [µM]
1 | COc1ccc(C2C(C(=O)c3cccs3)C(=O)C(=O)N2c2nncs2)cc1 (stereo not drawn) | 0.1
2 | COc1ccc(C2C(C(C)=O)=C(C)N=c3sc(=Cc4cc(C)n(C)c4C)c(=O)n32)c(OC)c1 (stereo not drawn) | 21
3 | N#CC1C(=N)OC2=C(C(=O)CC(c3ccccc3)C2)C1c1ccc2c(c1)OCO2 (stereo not drawn) | > 300
4 | Clc1ccc(C2=Nc3ncnn3C(c3ccco3)C2)cc1 (stereo not drawn) | 3.36
5 | Brc1ccc(C2=Nc3ncnn3C(c3ccco3)C2)cc1 (stereo not drawn) | 18.1
6 | CS(=O)(=O)Nc1nc2n(n1)C(c1ccccc1)CC(c1ccc(Br)cc1)=N2 (stereo not drawn) | 6.39
7 | COc1ccccc1-n1c(O)c2n(-c3ccc(C)cc3)[nH]c(C(=O)c3ccccc3)c-2c1=O | 14.3
8 | COc1cc(C2c3c(-c4cccnc4)n[nH]c3OC(=N)C2C#N)cc(Br)c1O (stereo not drawn) | > 300
9 | O=C1N=c2ccccc2=C1NNc1ccc(F)cc1 | > 300
10 | c1ccc(CN=Nc2nc3ccccc3[nH]2)nc1 | 41.7
11 | Cc1c(C(=O)NN=Cc2ccco2)[nH][nH]c1=O | > 300
12 | COC1=CC([N+](=O)[O-])=CC(/C=N/NC(=O)CC#N)C1=O (stereo not drawn) | > 300
13 | Cc1ccc(Cl)c2c1NC(=O)/C2=C1/NC(=S)NC1=O | 0.294
14 | Cc1c(C(=O)O)cccc1-n1c(C)cc(CN=Nc2ccc([N+](=O)[O-])cn2)c1C | 50.2
15 | COc1ccc(OC)c(NC=C2C(=O)NC(=S)N(Cc3ccccc3)C2=O)c1 | > 300
16 | C[C@H]1c2cccc(O)c2C(=O)C2C(=O)[C@]3(O)C(=O)C(C(N)=O)C(=O)[C@@H](N(C)C)[C@@H]3[C@@H](O)[C@@H]21 (stereo partly drawn) | 37.9
17 | COc1cc(C2C3=C(CC(C)(C)CC3=O)OC(=N)C2C#N)cc2c1OCO2 (stereo not drawn) | > 300
18 | N#CC1C(=N)OC2=C(C(=O)CCC2)C1c1ccc2c(c1)OCO2 (stereo not drawn) | > 300
19 | Cc1ccc(Cl)c2c1=NC(=O)C=2NNc1ccccc1 | > 300
20 | COc1cc(C2C3=C(CCCC3=O)OC(=N)C2C#N)cc2c1OCO2 (stereo not drawn) | > 300
21 | Cc1ccc2c(c1)=C(NNc1ccccc1C)C(=O)N=2 | > 300
22 | O=C1NC(=O)N(c2cccc(F)c2)C(=O)C1=Cc1c[nH]c2ccccc12 | 36.6
23 | COc1ccccc1OCC(=O)NN=Cc1c(O)ccc2ccccc12 | 131
24 | N#CCC(=N)C(C#N)C#N [1,1,3-tricyano-2-amino-1-propene] | 169
25 | O=C(NN=CC1=CC(=O)C(=O)CC1)NN=CC1=CC(=O)C(=O)CC1 [1,3-bis[[(Z)-(3-hydroxy-4-oxocyclohexa-2,5-dien-1-ylidene)methyl]amino]urea] | 4.86
26 | CCN(CC)CCN1C(=O)C(=O)C(C(=O)c2cc3cccc(OC)c3o2)C1c1ccc(F)cc1 (stereo not drawn) [1-(2-Diethylamino-ethyl)-5-(4-fluoro-phenyl)-3-hydroxy-4-(7-methoxy-benzofuran-2-carbonyl)-1,5-dihydr o-pyrrol-2-one] | > 300
27 | C=CCOc1cccc(C2C(C(=O)c3ccco3)C(=O)C(=O)N2Cc2ccco2)c1 (stereo not drawn) [1-(2-furanylmethyl)-3-[2-furanyl(oxo)methyl]-4-hydroxy-2-(3-prop-2-enoxyphenyl)-2H-pyrrol-5-one] | > 300

Row | SMILES | EC50 [µM]
28 | O=C1Nc2ccccc2/C1=N/NC(=S)Nc1ccc(O)cc1 [1-(4-hydroxyphenyl)-3-[(2-oxidanylideneindol-3-yl)amino]thiourea] | 3.98
29 | C=CCOc1ccc(C2C(C(=O)c3cccs3)C(=O)C(=O)N2c2nnc(C)s2)cc1 (stereo not drawn) [1-(5-methyl-1,3,4-thiadiazol-2-yl)-4-oxidanyl-2-(4-prop-2-enoxyphenyl)-3-thiophen-2-ylcarbonyl-2H-pyrrol-5-one] | 3.06
30 | COc1ccc(NC=C2C(=O)NC(=S)N(Cc3ccccc3)C2=O)c(OC)c1 [1-Benzyl-5-[1-(2,4-dimethoxy-phenylamino)-meth-(Z)-ylidene]-2-thioxo-dihydro-pyrimidine-4,6-dione] | > 300
31 | CSc1nncc(C(C)N=Nc2ccccc2)n1 (stereo not drawn) [1-[3-(methylsulfanyl)-1,2,4-triazin-5-yl]ethanone phenylhydrazone] | > 300
32 | C=CCSc1nnc(N2C(=O)C(=O)C(C(=O)c3ccco3)C2c2ccccc2F)s1 (stereo not drawn) [1-[5-(allylthio)-1,3,4-thiadiazol-2-yl]-5-(2-fluorophenyl)-4-(2-furoyl)-3-hydroxy-3-pyrrolin-2-one] | 54.8
33 | C=CCSc1nnc(N2C(=O)C(=O)C(C(=O)c3ccco3)C2c2ccc(F)cc2)s1 (stereo not drawn) [1-[5-(allylthio)-1,3,4-thiadiazol-2-yl]-5-(4-fluorophenyl)-4-(2-furoyl)-3-hydroxy-3-pyrrolin-2-one] | 87.6
34 | CC(C)c1ccc(C2C(C#N)=C3Sc4ccccc4N3C(=N)C2C#N)cc1 (stereo not drawn) [1-amino-3-(4-propan-2-ylphenyl)-3H-pyrido[2,1-b][1,3]benzothiazole-2,4-dicarbonitrile] | 61.3
35 | CC1(C)CC(=O)C2Sc3ccccc3N=C2C1 (stereo not drawn) [2,2-Dimethyl-2,3-dihydro-1H,10H-phenothiazin-4-one] | 59.3
36 | COc1cccc(C2C(C(=O)c3cc4cccc(OC)c4o3)C(=O)C(=O)N2c2cc(C)on2)c1OC (stereo not drawn) [2-(2,3-dimethoxyphenyl)-3-[(7-methoxy-1-benzofuran-2-yl)carbonyl]-1-(5-methyl-1,2-oxazol-3-yl)-4-oxidanyl-2H-pyrrol-5-one] | > 300
37 | COc1ccc(OC)c(C2C(C(=O)c3ccco3)C(=O)C(=O)N2CCN2CCOCC2)c1 (stereo not drawn) [2-(2,5-dimethoxyphenyl)-3-(furan-2-carbonyl)-4-hydroxy-1-(2-morpholin-4-ylethyl)-2H-pyrrol-5-one] | > 300
38 | COc1cccc(C2C3=C(CCCC3=O)OC(=N)C2C#N)c1OC(=O)c1ccco1 (stereo not drawn) [2-(2-amino-3-cyano-5-oxo-5,6,7,8-tetrahydro-4H-chromen-4-yl)-6-methoxyphenyl 2-furoate] | > 300
39 | CC1(C)CC(=O)C2=C(C1)OC(=N)C(C#N)C2c1ccccc1OC(=O)N1CCOCC1 (stereo not drawn) [2-(2-amino-3-cyano-7,7-dimethyl-5-oxo-5,6,7,8-tetrahydro-4H-chromen-4-yl)phenyl morpholine-4-carboxylate] | > 300
40 | CCCSc1nnc(N2C(=O)C(=O)C(C(=O)c3ccco3)C2c2ccccc2F)s1 (stereo not drawn) [2-(2-fluorophenyl)-3-(furan-2-carbonyl)-4-hydroxy-1-(5-propylsulfanyl-1,3,4-thiadiazol-2-yl)-2H-pyrrol-5-one] | > 300
41 | COc1ccc(C2C(C(=O)c3cccs3)C(=O)C(=O)N2c2nnc(C)s2)cc1OC (stereo not drawn) [2-(3,4-dimethoxyphenyl)-1-(5-methyl-1,3,4-thiadiazol-2-yl)-4-oxidanyl-3-thiophen-2-ylcarbonyl-2H-pyrrol-5-one] | 5.19
42 | COc1ccc(C2C(C(=O)c3ccco3)C(=O)C(=O)N2c2nnc(C)s2)cc1OC (stereo not drawn) [2-(3,4-dimethoxyphenyl)-3-(furan-2-carbonyl)-4-hydroxy-1-(5-methyl-1,3,4-thiadiazol-2-yl)-2H-pyrrol-5-one] | 297
43 | Cc1ccc(C(=O)C2C(=O)C(=O)N(Cc3ccco3)C2c2cccc(Br)c2)o1 (stereo not drawn) [2-(3-bromophenyl)-1-(2-furanylmethyl)-4-hydroxy-3-[(5-methyl-2-furanyl)-oxomethyl]-2H-pyrrol-5-one] | 35.6
44 | CCCCOc1cccc(C2C(C(=O)c3ccc(C)o3)C(=O)C(=O)N2c2nnc(C)s2)c1 (stereo not drawn) [2-(3-butoxyphenyl)-3-(5-methylfuran-2-yl)carbonyl-1-(5-methyl-1,3,4-thiadiazol-2-yl)-4-oxidanyl-2H-pyrrol-5-one] | 77.4
45 | CSc1nnc(N2C(=O)C(=O)C(C(=O)c3ccco3)C2c2cccc(Cl)c2)s1 (stereo not drawn) [2-(3-chlorophenyl)-3-(furan-2-carbonyl)-4-hydroxy-1-(5-methylsulfanyl-1,3,4-thiadiazol-2-yl)-2H-pyrrol-5-one] | 14.3
46 | CCOc1cccc(C2C(C(=O)c3ccc(C)o3)C(=O)C(=O)N2c2nccs2)c1 (stereo not drawn) [2-(3-ethoxyphenyl)-3-(5-methylfuran-2-yl)carbonyl-4-oxidanyl-1-(1,3-thiazol-2-yl)-2H-pyrrol-5-one] | 1.27
47 | Cc1cccc(Nc2nc(O)cs2)c1 [2-(3-methylanilino)-1,3-thiazol-4-one] | > 300
48 | COCCNC(=O)Cn1cc(C=C2C(=O)NC(=O)N(c3ccccc3F)C2=O)c2ccccc21 [2-(3-{(E)-[1-(2-fluorophenyl)-2,4,6-trioxotetrahydropyrimidin-5(2H)-ylidene]methyl}-1H-indol-1-yl)-N-(2-methoxyethyl)acetamide] | 8.13
49 | Cc1nnc(N2C(=O)C(=O)C(C(=O)c3ccco3)C2c2ccc(F)cc2)s1 (stereo not drawn) [2-(4-fluorophenyl)-3-(furan-2-carbonyl)-4-hydroxy-1-(5-methyl-1,3,4-thiadiazol-2-yl)-2H-pyrrol-5-one] | 32.9
50 | CSc1nnc(N2C(=O)C(=O)C(C(=O)c3ccco3)C2c2ccc(F)cc2)s1 (stereo not drawn) [2-(4-fluorophenyl)-3-(furan-2-carbonyl)-4-hydroxy-1-(5-methylsulfanyl-1,3,4-thiadiazol-2-yl)-2H-pyrrol-5-one] | 82.8
51 | Cc1[nH]c2ccccc2c1/C=C1\N=C(c2ccc(F)cc2)OC1=O [2-(4-fluorophenyl)-4-[(2-methyl-1H-indol-3-yl)methylene]-1,3-oxazol-5(4H)-one] | 5.53
52 | O=C1c2cccc([N+](=O)[O-])c2C(=O)N1n1c(O)csc1=S [2-(4-keto-2-thioxo-thiazolidin-3-yl)-4-nitro-isoindoline-1,3-quinone] | 24.8
53 | Cc1nnc(N2C(=O)C(=O)C(C(=O)c3ccco3)C2c2ccc(C(C)(C)C)cc2)s1 (stereo not drawn) [2-(4-tert-butylphenyl)-3-(furan-2-carbonyl)-4-hydroxy-1-(5-methyl-1,3,4-thiadiazol-2-yl)-2H-pyrrol-5-one] | 7.86

— BindingDB's records for doi:10.7270/Q2D798VP (Broad Institute, 2009)
